Legend:
Format in all cases: in vivo
[1] = test system: Amaranthus retroflexus (AMARE); assay: Herbicidal post-emergence action (B), 1280 g/ha; settings: rated visually after about 3 weeks vs untreated controls
In short: (§1)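 Percent activity is a visual score taken about 3 weeks after treatment, relative to untreated plants, where 100% means the plants died and 0% means no difference from controls. Plants were sprayed on green parts at the one-leaf stage with an aqueous suspension or emulsion containing 0.5% additive at 600 L/ha.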

Poa annua (POAAN) [2] = assay: Herbicidal post-emergence action (B), 1280 g/ha; settings: rated visually after about 3 weeks vs untreated controls
In short: as §1

[3] = test system: Alopecurus myosuroides (ALOMY); assay: Herbicidal post-emergence action (B), 1280 g/ha; settings: rated visually after about 3 weeks vs untreated controls
In short: as §1

[4] = test system: Kochia scoparia (KCHSC; Bassia scoparia); assay: Herbicidal post-emergence action (B), 1280 g/ha
In short: as §1

[5] = test system: Echinochloa crus-galli (ECHCG); assay: Herbicidal post-emergence action (B), 1280 g/ha; settings: rated visually after about 3 weeks vs untreated controls
In short: as §1

[6] = test system: Matricaria inodora (MATIN); assay: Herbicidal post-emergence action (B), 1280 g/ha; settings: rated visually after about 3 weeks vs untreated controls
In short: as §1

Stellaria media (STEME) [7] = assay: Herbicidal post-emergence action (B), 1280 g/ha
In short: as §1

[8] = test system: Abutilon theophrasti (ABUTH); assay: Herbicidal post-emergence action (B), 1280 g/ha; settings: rated visually after about 3 weeks vs untreated controls
In short: as §1

[9] = test system: Digitaria sanguinalis (DIGSA); assay: Herbicidal post-emergence action (B), 1280 g/ha; settings: rated visually after about 3 weeks vs untreated controls
In short: as §1

Veronica persica (VERPE) [10] = assay: Herbicidal post-emergence action (B), 1280 g/ha
In short: as §1

Setaria viridis (SETVI) [11] = assay: Herbicidal post-emergence action (B), 1280 g/ha; settings: rated visually after about 3 weeks vs untreated controls
In short: as §1

[12] = test system: Echinochloa crus-galli (ECHCG); assay: Herbicidal pre-emergence action (C), 320 g/ha; settings: ca. 3 weeks
In short: (§2)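 Seeds sown in sandy loam; WP or EC formulations sprayed on covering soil pre-emergence at 320 g/ha in 600 l water/ha with 0.5% additive. Greenhouse culture; damage scored visually after ca. 3 weeks versus untreated controls (0% = as control, 100% = plants dead).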

[13] = test system: Amaranthus retroflexus (AMARE); assay: Herbicidal pre-emergence action (A), 1280 g/ha; settings: visual grading after ca. 3 weeks vs untreated controls
In short: (§3)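 Pre-emergence soil-surface spray, 600 l/ha water, 0.5% additive, WP or EC formulation. Sandy loam, double sowing per pot, greenhouse under optimum growth. Visual % damage at ~3 wk vs untreated; 100% = plants died off.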

Poa annua (POAAN) [14] = assay: Herbicidal pre-emergence action (A), 1280 g/ha; settings: visual grading after ca. 3 weeks vs untreated controls, 100% = plants have died off, 0% = as control plants
In short: as §3

[15] = test system: Matricaria inodora (MATIN); assay: Herbicidal pre-emergence action (A), 1280 g/ha; settings: visual grading after ca. 3 weeks vs untreated controls
In short: as §3

Stellaria media (STEME) [16] = assay: Herbicidal pre-emergence action (A), 1280 g/ha; settings: visual grading after ca. 3 weeks vs untreated controls
In short: as §3

[17] = test system: Digitaria sanguinalis (DIGSA); assay: Herbicidal pre-emergence action (A), 1280 g/ha; settings: visual grading after ca. 3 weeks vs untreated controls, 100% = plants have died off, 0% = as control plants
In short: as §3

Setaria viridis (SETVI) [18] = assay: Herbicidal pre-emergence action (A), 1280 g/ha; settings: visual grading after ca. 3 weeks vs untreated controls
In short: as §3

[19] = test system: Abutilon theophrasti (ABUTH); assay: Herbicidal post-emergence action (D), 320 g/ha; settings: ca. 3 weeks
In short: (§4)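 Post-emergence greenhouse test. Sandy loam; spray at single-leaf stage (2–3 wk after sowing); WP or EC in water + 0.5% additive, 600 l/ha. Visual rating ~3 wk post-spray, % effect vs untreated (0 = control, 100 = dead).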

Veronica persica (VERPE) [20] = assay: Herbicidal post-emergence action (D), 320 g/ha; settings: ca. 3 weeks
In short: as §4

[21] = test system: Amaranthus retroflexus (AMARE); assay: Herbicidal pre-emergence action (C), 320 g/ha; settings: ca. 3 weeks
In short: as §2

[22] = test system: Alopecurus myosuroides (ALOMY); assay: Herbicidal pre-emergence action (C), 320 g/ha; settings: ca. 3 weeks
In short: as §2

Lolium rigidum (LOLRI) [23] = assay: Herbicidal pre-emergence action (C), 320 g/ha; settings: ca. 3 weeks
In short: as §2

[24] = test system: Matricaria inodora (MATIN); assay: Herbicidal pre-emergence action (C), 320 g/ha; settings: ca. 3 weeks
In short: as §2

Veronica persica (VERPE) [25] = assay: Herbicidal pre-emergence action (C), 320 g/ha; settings: ca. 3 weeks
In short: as §2

Setaria viridis (SETVI) [26] = assay: Herbicidal pre-emergence action (C), 320 g/ha; settings: ca. 3 weeks
In short: as §2

Avena fatua = assay: Herbicidal pre-emergence action (C), 320 g/ha; settings: ca. 3 weeks
Description: Seeds of mono- and dicotyledonous weed plants and crop plants were sown, in plastic or organic planting pots, in sandy loam and covered with soil. The compounds according to the invention, formulated in the form of wettable powders (WP) or as emulsifiable concentrates (EC), were applied to the surface of the covering soil as aqueous suspension or emulsion, with the addition of 0.5% of an additive, at an application rate of 600 l of water/ha (converted).
Following treatment, the pots were placed in a greenhouse and kept under optimum growth conditions for the test plants. The visual grading of the damage to the test plants was carried out after ca. 3 weeks in comparison to untreated controls (herbicidal effect in percent (%): 100% effect=plants have died off, 0% effect=as control plants).
Tables C1 to C13 below show the effects of selected compounds of the general formula (I) according to table 1 on various harmful plants and an application rate corresponding to 320 g/ha obtained by the experimental procedure mentioned above.

[27] = test system: Alopecurus myosuroides (ALOMY); assay: Herbicidal post-emergence action (D), 320 g/ha; settings: ca. 3 weeks
In short: as §4

[28] = test system: Echinochloa crus-galli (ECHCG); assay: Herbicidal post-emergence action (D), 320 g/ha; settings: ca. 3 weeks
In short: as §4

[29] = test system: Polygonum convolvulus (POLCO); assay: Herbicidal post-emergence action (D), 320 g/ha; settings: ca. 3 weeks
In short: as §4

Viola tricolor (VIOTR) = assay: Herbicidal post-emergence action (D), 320 g/ha; settings: ca. 3 weeks
In short: as §4

Setaria viridis (SETVI) [30] = assay: Herbicidal post-emergence action (D), 320 g/ha; settings: ca. 3 weeks
In short: as §4

[31] = test system: Abutilon theophrasti (ABUTH); assay: Herbicidal pre-emergence action (C), 320 g/ha; settings: ca. 3 weeks
In short: as §2

[32] = test system: Alopecurus myosuroides (ALOMY); assay: Herbicidal pre-emergence action (A), 1280 g/ha; settings: visual grading after ca. 3 weeks vs untreated controls, 100% = plants have died off, 0% = as control plants
In short: as §3

Lolium rigidum (LOLRI) [33] = assay: Herbicidal pre-emergence action (A), 1280 g/ha; settings: visual grading after ca. 3 weeks vs untreated controls, 100% = plants have died off, 0% = as control plants
In short: as §3

[34] = test system: Kochia scoparia (KCHSC; Bassia scoparia); assay: Herbicidal pre-emergence action (A), 1280 g/ha; settings: visual grading after ca. 3 weeks vs untreated controls
In short: as §3

[35] = test system: Echinochloa crus-galli (ECHCG); assay: Herbicidal pre-emergence action (A), 1280 g/ha; settings: visual grading after ca. 3 weeks vs untreated controls, 100% = plants have died off, 0% = as control plants
In short: as §3

Veronica persica (VERPE) [36] = assay: Herbicidal pre-emergence action (A), 1280 g/ha; settings: visual grading after ca. 3 weeks vs untreated controls
In short: as §3

Compound | herbicidal activity AMARE [1] [%] | herbicidal activity POAAN (Poa annua (POAAN) [2]) [%] | herbicidal effect KCHSC [4] [%] | herbicidal activity ECHCG [5] [%] | herbicidal effect STEME (Stellaria media (STEME) [7]) [%] | herbicidal effect VERPE (Veronica persica (VERPE) [10]) [%] | herbicidal activity SETVI (Setaria viridis (SETVI) [11]) [%] | herbicidal effect ECHCG [12] [%] | herbicidal effect AMARE [13] [%] | POAAN, herbicidal effect in percent (%) (Poa annua (POAAN) [14]) | herbicidal effect MATIN [15] [%] | herbicidal effect STEME (Stellaria media (STEME) [16]) [%] | herbicidal effect SETVI (Setaria viridis (SETVI) [18]) [%] | herbicidal effect ABUTH [19] [%] | herbicidal effect VERPE (Veronica persica (VERPE) [20]) [%] | herbicidal effect AMARE [21] [%] | herbicidal effect ALOMY [22] [%] | herbicidal effect VERPE (Veronica persica (VERPE) [25]) [%] | herbicidal effect SETVI (Setaria viridis (SETVI) [26]) [%] | herbicidal effect ALOMY [27] [%] | further results
CCc1cc2sc(OC)nc2nc1-c1ccccc1C [Example I-094] | 100 | 100 | 100 | 100 | 100 | 100 | 100 | 80 | 100 | 100 | 100 | 100 | 100 | 80 | 90 | – | – | – | – | – | herbicidal activity ALOMY [3]: 100%; herbicidal activity MATIN [6]: 100%; herbicidal activity ABUTH [8]: 100%; herbicidal activity DIGSA [9]: 100%; DIGSA, herbicidal effect in percent (%) [17]: 100%
Fc1ccc(-c2nc3ncsc3cc2Cl)c(F)c1 [Example I-127] | – | – | – | – | – | – | – | 100 | – | – | – | – | – | 80 | 80 | 80 | 90 | 90 | 100 | 90 | herbicidal effect LOLRI (Lolium rigidum (LOLRI) [23]): 80%; herbicidal effect MATIN [24]: 80%; herbicidal effect AVEFA (Avena fatua): 90%; herbicidal effect ECHCG [28]: 90%; herbicidal effect POLCO [29]: 90%; herbicidal effect VIOTR (Viola tricolor (VIOTR)): 80%; herbicidal effect SETVI (Setaria viridis (SETVI) [30]): 90%
Clc1cc2scnc2nc1-c1sccc1Cl [Example I-189] | 90 | 90 | 90 | 100 | 90 | 90 | 90 | 100 | 90 | 100 | 90 | 90 | 100 | 80 | 80 | 80 | 100 | 80 | 100 | 90 | herbicidal effect ABUTH [31]: 80%; ALOMY, herbicidal effect in percent (%) [32]: 90%; LOLRI, herbicidal effect in percent (%) (Lolium rigidum (LOLRI) [33]): 90%; herbicidal effect KCHSC [34]: 90%; ECHCG, herbicidal effect in percent (%) [35]: 100%; herbicidal effect VERPE (Veronica persica (VERPE) [36]): 90%; herbicidal effect ECHCG [28]: 90%; herbicidal effect POLCO [29]: 80%; herbicidal effect SETVI (Setaria viridis (SETVI) [30]): 90%

Reference: patent publication US20230151025A1, “SUBSTITUTED THIAZOLOPYRIDINES, SALTS THEREOF AND THEIR USE AS HERBICIDALLY ACTIVE SUBSTANCES” (Bayer Aktiengesellschaft, priority 2020, published 2023)
